Test results: patent EP4180043A1, “RUTHENIUM COMPLEXES” (Universidad de Almeria, priority 2020, dated 2022)

Tested on: cancer cells
Experiment: antiproliferative activity (anticancer properties)
Format: cell-based
Settings: cell line not stated; cisplatin in the same experiment; read-out: antiproliferative activity indicated by the cell survival half-life factor (IC50)
Experimental: Three examples of bi-heterometallic compounds which would be obtained from that compound present better activity as shown by their IC50: IC50 Ru-Zn: 9.07±0.27; IC50 Ru-Co: 5.40±0.19; IC50 Ru-Ni: 7.15±0.30 µM. Ru-Zn = [Ru(η^6-C10H14)(Cl2)-µ-dmoPTA-1κP:2κ^2N,N'-ZnCl2]. Ru-Co = [Ru(η^6-C10H14)(Cl2)-µ-dmoPTA-1κP:2κ^2N,N'-CoCl2]. Ru-Ni = [Ru(η^6-C10H14)(Cl2)-µ-dmoPTA-1κP:2κ^2N,N'-NiCl2].

[Ru(η^6-C10H14)(Cl2)-µ-dmoPTA-1κP:2κ^2N,N'-CoCl2] [Ru-Co]
IC50: 5.4 ± 0.19 µM

[Ru(η^6-C10H14)(Cl2)-µ-dmoPTA-1κP:2κ^2N,N'-ZnCl2] [Ru-Zn]
IC50: 9.07 ± 0.27 µM

[Ru(η^6-C10H14)(Cl2)-µ-dmoPTA-1κP:2κ^2N,N'-NiCl2] [Ru-Ni]
IC50: 7.15 ± 0.3 µM

N.N.[Cl][Pt][Cl] [cisplatin, reference compound]
IC50: 45.6 ± 8.08 µM

[Ru(η^6-C10H14)(Cl2)(HdmoPTA)](OSO2CF3)
IC50: 32.09 ± 0.3 µM
